Measurements published in ChEMBL document CHEMBL3608238, “Coronaridine, an iboga type alkaloid from Tabernaemontana divaricata, inhibits the Wnt signaling pathway by decreasing β-catenin mRNA expression” (Bioorg Med Chem Lett, 2015).
Calls of active or inactive are those of the source. The calls are words filed in the database; no cut-off is given here.

Experiments:
HEK-293T [1] = test: Inhibition of Wnt/beta-catenin in HEK293T cells assessed as inhibition of TCF/beta catenin transcription at 5 to 20 uM after 24 hrs by SuperFOPFlash reporter gene assay; format: cell-based; settings: Homo sapiens
HCT-116 = test: Cytotoxicity against Wnt-dependent human HCT116 cells assessed as cell viability after 24 hrs by fluorescence assay; format: functional, cell-based; settings: HCT-116, 24 h
SW480 [2] = test: Cytotoxicity against Wnt-dependent human SW480 cells assessed as cell viability after 24 hrs by fluorescence assay; format: functional, cell-based; settings: SW480, 24 h
RKO = test: Cytotoxicity against Wnt-independent human RKO cells assessed as cell viability after 24 hrs by fluorescence assay; format: cell-based
HEK-293T [3] = test: Cytotoxicity against HEK293T cells assessed as cell viability after 24 hrs by fluorescence assay; format: cell-based; settings: Homo sapiens
[4] = Cytotoxicity against Wnt-dependent human DLD1 cells assessed as cell viability after 24 hrs by fluorescence assay; format: functional, cell-based; settings: DLD-1, 24 h
STF/293 = test: (§1) Inhibition of Wnt/beta-catenin in human STF/293 cells assessed as inhibition of TCF/beta catenin transcription after 24 hrs by SuperTOPFlash reporter gene assay; format: cell-based
[5] = as §1; format: cell-based; settings: STF/293, 24 h
HEK293 = test: Cytotoxicity against HEK293 cells assessed as cell viability after 24 hrs by fluorescence assay; format: cell-based; settings: Homo sapiens, HEK293, 24 h
SW480 [6] = test: Effect on GSK3beta expression in human SW480 cells at 10 to 40 uM after 24 hrs by Western blot analysis; format: functional, cell-based
SW480 [7] = test: Inhibition of Wnt/beta-catenin in human SW480 cells assessed as decrease in cytosolic beta-catenin level at 10 to 40 uM after 24 hrs by Western blot analysis; format: cell-based
SW480 [8] = test: Inhibition of Wnt/beta-catenin in proteasome inhibitor MG132 pretreated human SW480 cells assessed as decrease in beta-catenin level at 40 uM co-treated with MG132 for 12 hrs by Western blot analysis; format: cell-based
SW480 [9] = test: Effect on CK1alpha expression in human SW480 cells at 10 to 40 uM after 24 hrs by Western blot analysis; format: functional, cell-based
SW480 [10] = test: Inhibition of Wnt/beta-catenin in human SW480 cells assessed as decrease in nuclear beta-catenin level at 10 to 40 uM after 24 hrs by Western blot analysis; format: cell-based
SW480 [11] = test: Inhibition of Wnt/beta-catenin in human SW480 cells assessed as beta-catenin phosphorylation at Ser33/Ser37/Thr40 at 10 to 40 uM after 24 hrs by Western blot analysis; format: cell-based
SW480 [12] = test: Inhibition of Wnt/beta-catenin in human SW480 cells assessed as decrease in beta-catenin mRNA level at 40 uM by real time RT-PCR analysis; format: cell-based
SW480 [13] = test: Inhibition of Wnt/beta-catenin in human SW480 cells assessed as beta-catenin phosphorylation at Ser45 at 10 to 40 uM after 24 hrs by Western blot analysis; format: cell-based
HEK-293T [14] = test: Inhibition of Wnt/beta-catenin in HEK293T cells assessed as inhibition of TCF/beta catenin transcription at 10 to 40 uM after 24 hrs by SuperFOPFlash reporter gene assay; format: cell-based; settings: Homo sapiens

Row | SMILES | inhibition (HEK-293T [1]) | IC50 (HCT-116) [µM] | IC50 (SW480 [2]) [µM] | IC50 (RKO) [µM] | IC50 (HEK-293T [3]) [µM] | IC50 [4] [µM] | inhibition (STF/293) | IC50 [5] [µM] | IC50 (HEK293) [µM] | Activity (SW480 [6]) | inhibition (SW480 [7]) | inhibition (SW480 [8]) | Activity (SW480 [9]) | inhibition (SW480 [10]) | inhibition (SW480 [11]) | inhibition (SW480 [12]) | inhibition (SW480 [13]) | inhibition (HEK-293T [14])
1 | CC[C@H]1C[C@@H]2CN3CC[C@]4(O)C(=Nc5ccccc54)[C@](C(=O)OC)(C2)[C@H]13 [CORONARIDINE HYDROXYINDOLENINE] | Active | > 40 | > 40 | > 40 | > 40 | > 40 | Dose-dependent effect | 7.3 | > 40 |  |  |  |  |  |  |  |  | 
2 | CC[C@H]1C[C@@H]2CN3CCc4c([nH]c5ccccc45)[C@](C(=O)OC)(C2)[C@H]13 [CORONARIDINE] | Active | 11.6 | 10.4 | > 40 | > 40 | 24.4 | Dose-dependent effect | 5.8 | 31.7 | inactive | Active | Active | inactive | Active | inactive | Active | inactive | 
3 | CC[C@H]1C[C@@H]2CN3CCc4c([nH]c5cc(OC)ccc45)[C@](C(=O)OC)(C2)[C@H]13 [ISOVOACANGINE] | Active | 24.4 | 11.2 | > 40 | > 40 | > 40 | Dose-dependent effect | 6 | 35.6 |  |  |  |  |  |  |  |  | 
4 | CC[C@H]1C[C@@H]2CN3CCc4c([nH]c5ccc(OC)cc45)[C@](C(=O)OC)(C2)[C@H]13 [VOACANGINE] |  | > 40 | > 40 | > 40 | > 40 | > 40 | Dose-dependent effect | 11.5 | > 40 |  |  |  |  |  |  |  |  | inactive
